≈ marks a conversion by molar mass, not a printed value. Where two headings read alike, the source gives them in different places.
Tests used:
[1] = tested on: SUN638 (gastric cancer) cell line; experiment: Anti-cancer activity in vitro, SUN638 cell line; format: cell-based
Description: (§1) The anti-cancer activity and toxicity of the compound according to the present invention were evaluated in vitro using A549 (lung cancer), SUN638 (gastric cancer), HCT116 (rectal cancer), and A431 (ovarian cancer) cell lines. The above four (4) cell lines were purchased from Cancer Research Institute, Seoul National University College of Medicine. […] The experiment was basically carried out according to the process described in Monks, A., et al, Journal of National Cancer Institute. 83: 757-766 (1991) and the results are represented in the following Tables 2 and 3.

[2] = tested on: SPF ICR mouse; experiment: Acute toxicity test, single oral administration; format: in vivo; conditions: single administration per oral, 7-day observation
Description: (§2) (1) Test Animal: SPF ICR mouse
(§3) (2) Age of the Test Animal: 4 weeks from acquisition 5 weeks from the start of administration
(§4) (3) Gender and Number of Test Animal: respective 18 he and she-mice (6 groups in each of he and she-mice, 3 mice per group)
(§5) (4) Breeding Environment: Temperature 22±3° C., Relative humidity […], Illumination 150-300 Lux
(§6) (5) Method of Administration: Single administration per oral
(§7) (6) Items to be Observed: General symptoms, appearance, weight and autopsy of dead mice
(§8) (8) Medium: 0.5% Tween 80

[3] = tested on: A549 (lung cancer) cell line; experiment: Anti-cancer activity in vitro, A549 cell line; format: cell-based
Description: as §1

[4] = tested on: HCT116 (rectal cancer) cell line; experiment: Anti-cancer activity in vitro, HCT116 cell line; format: cell-based
Description: as §1

[5] = tested on: A431 (ovarian cancer) cell line; experiment: Anti-cancer activity in vitro, A431 cell line; format: cell-based
Description: as §1

[6] = tested on: A431 cell line; experiment: Anti-cancer activity in vitro, A431 cell line; format: cell-based; conditions: Homo sapiens, A-431, read-out: LC50
Description: as §1

[7] = Acute toxicity test, single oral administration; format: in vivo; conditions: mouse, in vivo, single administration per oral, 7-day observation
Description: as §2, §3, §4, §5, §6, §7, §8

[8] = tested on: SPF ICR mouse; conditions: clinically used comparison drugs, not among the test compounds of b552; species and route not given; cited from earlier work
[9] = SUN638 Cell Line, read-out: GI50
[10] = Homo sapiens, A549, read-out: LC50
[11] = Homo sapiens, A549 Cell Line, read-out: GI50
[12] = Homo sapiens, HCT-116, read-out: LC50
[13] = Homo sapiens, HCT-116, HCT116 Cell Line, read-out: GI50
[14] = Homo sapiens, A-431, A431 Cell Line, read-out: GI50
[15] = both sexes, male and female ICR mice

In the case of COc1cc2c(cc1OC)C(c1ccccc1)CN(C(=O)n1ccnc1)CC2 (stereo not shown) [Compound 66, 3-[(1H-imidazol-1-yl)carbonyl]-7,8-dimethoxy-1-phenyl-2,3,4,5-tetrahydro-3H-benzazepine], the GI50 ([1]; SUN638 Cell Line) is reported as 0.21 µg/mL (≈ 0.556 µM), the LC50 ([1]; SUN638 Cell Line) is reported as >100 µg/mL and the TGI50 ([1]; SUN638 Cell Line) is reported as 1.73 µg/mL. The LD50 ([2]; female ICR mice) was 2000 (female) mg/kg, the LD50 ([2]; male ICR mice) was 1921 (male) mg/kg and the GI50 ([3]; A549 Cell Line) was 0.38 µg/mL (≈ 1.01 µM). For the same compound, the LC50 ([3]; A549 Cell Line) was >100 µg/mL, the TGI50 ([3]; A549 Cell Line) was 54.95 µg/mL and the GI50 ([4]; HCT116 Cell Line) was 0.19 µg/mL (≈ 0.503 µM). For the same compound, the LC50 ([4]; HCT116 Cell Line) was >100 µg/mL, the TGI50 ([4]; HCT116 Cell Line) was 7.76 µg/mL and the GI50 ([5]; A431 Cell Line) was 0.28 µg/mL (≈ 0.742 µM). The LC50 ([5]; A431 Cell Line) was >100 µg/mL and the TGI50 ([5]; A431 Cell Line) was 100 µg/mL.
For COc1nc2ccccc2nc1NC(=O)N1CCN(C(c2ccccc2)c2ccccc2)CC1 [Compound 48, 1-[N-(2-methoxyquinoxalin-3-yl)aminocarbonyl]-4-(diphenylmethyl)piperazine], the GI50 [1, 9] was 1.62 µg/mL (≈ 3.57 µM), the LC50 ([1]; read-out: LC50) was > 100 µg/mL and the LC50 [3, 10] was > 100 µg/mL. The GI50 [3, 11] was 1.07 µg/mL (≈ 2.36 µM), the LC50 [4, 12] was > 100 µg/mL and the GI50 [4, 13] was 0.67 µg/mL (≈ 1.48 µM). The LC50 [6] was > 100 µg/mL, the TGI50 ([5]; A431 Cell Line) was 100 µg/mL and the GI50 [5, 14] was 1.65 µg/mL (≈ 3.64 µM).
In the case of C=CCN(CC=C)c1nc(N(CC=C)CC=C)nc(N2CCN(C(=O)n3ccnc3)CC2)n1 [Compound 61, 1-[(1H-imidazol-1-yl)carbonyl]-4-(4,6-bis-diallylamino-[1,3,5]triazin-2-yl)piperazine], the GI50 [1] is reported as 2.95 µg/mL (≈ 6.56 µM), the LC50 ([1]; read-out: LC50) is reported as > 100 µg/mL and the LD50 at 7 day ([7]; female ICR mice) is reported as 1140 mg/kg. The LD50 at 7 day ([7]; male ICR mice) was 2330 mg/kg, the GI50 ([3]; Homo sapiens, A549) was 6.02 µg/mL (≈ 13.4 µM) and the LC50 [3, 10] was > 100 µg/mL.
For N.N.O=C([O-])C1(C(=O)[O-])CCC1.[Pt+2] [Carboplatin], the LD50 [8] is given as 150 mg/kg.
For Cc1cc(C)cc(N2CCN(C(=O)n3ccnc3)CC2)c1.Cl [Compound 57, 1-[(1H-imidazol-1-yl)carbonyl]-4-(3,5-dimethylphenyl)piperazine hydrochloride], the GI50 [1] was 1.69 µg/mL, the LC50 ([1]; read-out: LC50) was > 100 µg/mL and the LD50 at 7 day [7, 15] was 1160 mg/kg. The GI50 ([3]; Homo sapiens, A549) was 1.77 µg/mL, the LC50 [3, 10] was > 100 µg/mL and the GI50 ([4]; Homo sapiens, HCT-116) was 1.34 µg/mL. For the same compound, the LC50 [4, 12] was > 100 µg/mL, the LC50 [6] was > 100 µg/mL and the TGI50 ([5]; A431 Cell Line) was 8.31 µg/mL. For the same compound, the GI50 ([5]; Homo sapiens, A-431) was 1.51 µg/mL.
In the case of COc1cccc2c1C(=O)c1c(O)c3c(c(O)c1C2=O)C[C@@](O)(C(=O)CO)C[C@@H]3O[C@H]1C[C@H](N)[C@H](O)[C@H](C)O1 [Doxorubicin], the LD50 [8] is listed as 21.1 mg/kg.
In the case of O=C(N1CCN(c2nc(NCC3CC3)nc(NCC3CC3)n2)CC1)n1ccnc1 [Compound 62, 1-[(1H-imidazol-1-yl)carbonyl]-4-(4,6-bis-cyclopropylmethylamino-[1,3,5]triazin-2-yl)piperazine], the GI50 [1] is reported as 0.61 µg/mL (≈ 1.53 µM), the LC50 ([1]; read-out: LC50) is reported as > 100 µg/mL and the LD50 at 7 day ([7]; female ICR mice) is reported as 466 mg/kg. The LD50 at 7 day ([7]; male ICR mice) was 354 mg/kg, the GI50 ([3]; Homo sapiens, A549) was 0.48 µg/mL (≈ 1.21 µM) and the LC50 [3, 10] was > 100 µg/mL. For the same compound, the GI50 ([4]; Homo sapiens, HCT-116) was 0.38 µg/mL (≈ 0.956 µM) and the LC50 [4, 12] was > 100 µg/mL.
In the case of Cc1cc(C)cc(N2CCN(C(=S)n3ccnc3)CC2)c1 [Compound 56, 1-[(1H-imidazol-1-yl)thiocarbonyl]-4-(3,5-dimethylphenyl) piperazine], the GI50 [1, 9] is reported as 1.34 µg/mL (≈ 4.46 µM), the LC50 ([1]; read-out: LC50) is reported as > 100 µg/mL and the LC50 [3, 10] is reported as > 100 µg/mL. For the same compound, the GI50 [3, 11] was 2.04 µg/mL (≈ 6.79 µM), the LC50 [4, 12] was > 100 µg/mL and the GI50 [4, 13] was 1.47 µg/mL (≈ 4.89 µM). The LC50 [6] was > 100 µg/mL, the TGI50 ([5]; A431 Cell Line) was 28.84 µg/mL and the GI50 [5, 14] was 1.31 µg/mL (≈ 4.36 µM).
In the case of COc1cc2c(cc1OC)C(c1ccc(F)cc1)CN(C(=O)n1ccnc1)CC2 (stereo not shown) [Compound 70, 3-[(1H-imidazol-1-yl)carbonyl]-7,8-dimethoxy-1-(4-fluoro)phenyl-2,3,4,5-tetrahydro-3H-benzazepine], the GI50 ([1]; SUN638 Cell Line) is reported as 1.78 µg/mL (≈ 4.5 µM), the LC50 ([1]; SUN638 Cell Line) is reported as >100 µg/mL and the TGI50 ([1]; SUN638 Cell Line) is reported as 7.24 µg/mL. The LD50 ([2]; male and female ICR mice) was 2000 (male and female) mg/kg, the GI50 ([3]; A549 Cell Line) was 1.12 µg/mL (≈ 2.83 µM) and the LC50 ([3]; A549 Cell Line) was >100 µg/mL. For the same compound, the TGI50 ([3]; A549 Cell Line) was 100 µg/mL, the GI50 ([4]; HCT116 Cell Line) was 1.31 µg/mL (≈ 3.31 µM) and the LC50 ([4]; HCT116 Cell Line) was >100 µg/mL. The TGI50 ([4]; HCT116 Cell Line) was 23.98 µg/mL.
In the case of COc1cc2c(cc1OC)C(c1ccccc1)CN(C(=O)Nc1nc3ccccc3nc1OC)CC2 (stereo not shown) [Compound 2, 3-[N-(2-methoxyquinoxalin-3-yl)aminocarbonyl]-7,8-dimethoxy-1-phenyl-2,3,4,5-tetrahydro-3H-benzazepine], the LD50 ([2]; male and female ICR mice) is reported as 2000 (male and female) mg/kg.
With Cc1cc(C)cc(N2CCN(C(=O)n3ccnc3)CC2)c1 [Compound 55, 1-[(1H-imidazol-1-yl)carbonyl]-4-(3,5-dimethylphenyl)piperazine] the GI50 [1] was 1.09 µg/mL (≈ 3.83 µM), the LC50 ([1]; read-out: LC50) was > 100 µg/mL and the GI50 ([3]; Homo sapiens, A549) was 1.77 µg/mL (≈ 6.22 µM). For the same compound, the LC50 [3, 10] was > 100 µg/mL, the GI50 ([4]; Homo sapiens, HCT-116) was 2.08 µg/mL (≈ 7.31 µM) and the LC50 [4, 12] was > 100 µg/mL. The LC50 [6] was > 100 µg/mL, the TGI50 ([5]; A431 Cell Line) was 67.60 µg/mL and the GI50 ([5]; Homo sapiens, A-431) was 1.38 µg/mL (≈ 4.85 µM).
With COc1cc2c(cc1OC)C(c1ccccc1)CN(C(=S)n1ccnc1)CC2 (stereo not shown) [Compound 67, 3-[(1H-imidazol-1-yl)thiocarbonyl]-7,8-dimethoxy-1-phenyl-2,3,4,5-tetrahydro-3H-benzazepine] the GI50 ([1]; SUN638 Cell Line) was 1.51 µg/mL (≈ 3.84 µM), the LC50 ([1]; SUN638 Cell Line) was >100 µg/mL and the TGI50 ([1]; SUN638 Cell Line) was 8.12 µg/mL. The GI50 ([3]; A549 Cell Line) was 0.66 µg/mL (≈ 1.68 µM), the LC50 ([3]; A549 Cell Line) was >100 µg/mL and the TGI50 ([3]; A549 Cell Line) was 17.78 µg/mL. The GI50 ([4]; HCT116 Cell Line) was 0.23 µg/mL (≈ 0.584 µM), the LC50 ([4]; HCT116 Cell Line) was >100 µg/mL and the TGI50 ([4]; HCT116 Cell Line) was 13.48 µg/mL. The GI50 ([5]; A431 Cell Line) was 0.70 µg/mL (≈ 1.78 µM), the LC50 ([5]; A431 Cell Line) was >100 µg/mL and the TGI50 ([5]; A431 Cell Line) was 30.19 µg/mL.
With C=CCNc1nc(NCC=C)nc(N2CCN(C(=O)NC(c3ccccc3)c3ccccc3)CC2)n1 [Compound 38, 1-[(diphenylmethyl)aminocarbonyl]-4-(4,6-bis-allylamino-[1,3,5]triazin-2-yl)piperazine] the GI50 [1, 9] was 2.75 µg/mL (≈ 5.67 µM), the LC50 ([1]; read-out: LC50) was > 100 µg/mL and the LD50 at 7 day [7, 15] was 2000 mg/kg. For the same compound, the LC50 [3, 10] was > 100 µg/mL, the GI50 [3, 11] was 1.28 µg/mL (≈ 2.64 µM) and the LC50 [4, 12] was > 100 µg/mL. The GI50 [4, 13] was 1.28 µg/mL (≈ 2.64 µM), the LC50 [6] was > 100 µg/mL and the TGI50 ([5]; A431 Cell Line) was 7.24 µg/mL. For the same compound, the GI50 [5, 14] was 1.41 µg/mL (≈ 2.91 µM).

Reference: patent publication US20020019389A1, “Urea derivative useful as an anti-cancer agent and process for preparing same” (priority 2000, published 2002)
